Consider 5 substances from publication PMC4414144, “Plasmin releases the anti-tumor peptide from the NC1 domain of collagen XIX” (Oncotarget, 2015).

“Also recorded” adds a separate entry of the source.

The subject of one data set is MMP-1. The experiment in a line: P36 peptide cleavage by MMP-1. The format is biochemical. Particulars: preliminary experiments, data not shown.
The next data set has as its system MMP-2. The experiment in a line: P36 peptide cleavage by MMP-2. The format is biochemical. The conditions noted are these: preliminary experiments, data not shown.
In data set [1] the target is T1, plasmin (Homo sapiens, UniProt P00747).
T1 construct: purchased Merck, Darmstadt
The data set is described as follows: P36 peptide digestion in vitro by plasmin (HPLC, MALDI-ToF MS). Particulars: for Effect on P36 peptide plasmin digestion: 16 h, E:S 1:50, HPLC. The format is biochemical. As to the method:
Lyophilized plasmin with a specific activity of 10 U/mg (Merck, Darmstadt, Allemagne) was dissolved in sterile water to a concentration of 1 mg/mL. In control sample, P36 peptide (6.79 × 10^−4 M) was incubated overnight at 37°C in a Tris-HCl buffer (150 mM NaCl, 5 mM CaCl2, 50 mM Tris-HCl, pH 7.5). […] Aliquots were analyzed by HPLC as described below.
Dose-dependent digestion of P36 peptide by plasmin was measured by incubating P36 peptide 16 h at 37°C with different plasmin concentrations. Time-dependent analysis of P36 peptide cleavage by plasmin was obtained by incubating P36 with plasmin (E:S 1:50 at 37°C) during different time. Cleavage of the peptide was monitored by HPLC using method 1.
HPLC samples (20 μL of each sample with 30 μL of 0.1% trifluoroacetic acid) were injected on a Waters Alliance 2695 HPLC system, equipped with a photodiode array 2996 PDA detector, fraction collector III (WFC III) and the Empower^TM chromatography software for data acquisition (Milford, MA, USA). The column used was a EC 250/4 Nucleosil reversed phase (5 μm particle size, 100 Å pore size, 4 × 250 mm) which was protected by a guard column CC 8/4 Nucleosil 300-5 C4 (Macherey-Nagel, Düren, Germany). The injection volume was 20 μL and detection was performed at λ = 214 nm. Eluants were 0.1% trifluoroacetic acid in water (A) and 0.1% trifluoroacetic acid in 80% acetonitrile (B). The analyses followed a linear gradient program with a flow at 0.8 mL/min. Two method conditions were used:
(§1) Solutions of matrix α–cyano-4-hydroxycinnamic acid (CHCA) was prepared as a saturated solution in ACN/water (1/1; v/v) containing 0.1% TFA (10 mg/mL). Samples were prepared at a concentration of 10 pmol/μL in water containing 0.1% TFA. Typically, 1 μL of the matrix was pipetted on the MALDI target plate. Then 1 μL of analyte was added and air-dried for MALDI-ToF MS analysis.
(§2) MS experiments were performed using micromass MALDITM–LR time-of-flight mass spectrometer (Waters MS technologies, Manchester, UK) equipped with a nitrogen UV laser (337 nm wavelength), reflectron optics, a fast dual micro-channel plate (MCP) detector and a high magnification camera system. Positive ion spectra were acquired in reflectron mode. The following voltages were applied: pulse 1940 V, MCP 2380 V, suppression 500, flight tube 12000 V, reflectron 5200 V. A time lag focusing (TLF) delay of 680 ns was used between the time of laser pulse and the application of the accelerating voltage. Samples were analyzed in reflectron acquisition mode in the mass range 550-4000 Da. Mass calibration was performed using a peptide mixture composed of Bradykinin fragment 1–5 (573.31 Da), human Angiotensin II (1046.54 Da), Neurotensin (1672.92 Da), ACTH clip (2465.20 Da), bovine Insulin ß-chain oxidized (3494.65 Da) and bovine Insulin (5730.61 Da).

The test system of another data set is MMP-9. The experiment in a line: P36 peptide cleavage by MMP-9. In kind it is biochemical. The conditions noted are these: preliminary experiments, data not shown.
Data set [2] can be described thus: Intra-chain disulfide bond formation in solution. The conditions noted are these: for Time for spontaneous intra-chain disulfide bond formation (C^1123-C^1128): in solution; for Intra-chain disulfide bond formation Cys^1123-Cys^1128: in solution over the time, MALDI-ToF MS. In kind it is physicochemical. As to the method: as §1, §2
Data set [3] relates to plasmin. The experiment in a line: P36 peptide digestion in SKMEL28 melanoma cell cultures. The conditions noted are these: MALDI-ToF MS. In kind it is cell-based, human. As to the method:
(§3) Human melanoma cell line (SKMEL28) was purchased from the American Type Culture Collection (ATCC, Manassas, VA). Cells were grown in Dulbecco's Modified Eagle's medium (DMEM) supplemented with 10% Fetal Bovine Serum (FBS), 1% penicillin and streptomycin (PenStrep®, Gibco®, France) in Nunclon® 75 cm^2 flasks (Dutscher, Brumath, France) at 37°C in a humid atmosphere (5% CO2, 95% air). Murine melanoma B16F1 cells, were a generous gift of Dr. M. Grégoire (INSERM UMRS 419, Nantes, France). They were grown in RPMI 1640 medium supplemented with 5% FBS in Nunclon 25 cm^2 flasks at 37°C in a humid atmosphere (5% CO2, 95% air). All culture media and reagents were purchased from Life Technologies (Invitrogen, Strasbourg, France).
SKMEL28 were incubated in DMEM with 20 μL plasminogen (40 μg/mL) and/or 20 μL plasmin (10 μg/mL) and/or aprotinin (10^−5 M) and P36 peptide. Samples were analyzed using HPLC and Matrix Assisted Laser Desorption Ionisation – Time of flight protocol (MALDI-ToF) as described below.
siRNA specific to human tPA (FlexiTube GeneSolution for PLAT) was purchased from Qiagen (Courtaboeuf, France). The siRNA target different regions of the tPA mRNA: 1st siRNA target sequence (5′-[…]-3′), 2nd siRNA target sequence (5′-[…]-3′), 3rd siRNA target sequence (5′-[…]-3′) and 4th siRNA target sequence (5′-[…]-3′). Exponentially growing SKMEL28 cells were transfected with siRNA pools (20 nM) using lipofectamine™ 2000. Decrease of tPA mRNA expression was assessed by RT-qPCR at 48 h after transfection. Decrease of tPA protein expression was monitored by zymography and immunocytofluorescence 72 h after siRNA transfection. Cells were subjected to plasminogen treatment for P36 peptide cleavage 24 h after transfection.

In data set [4] the target is T1, plasmin. The experiment in a line: Kinetic analysis of P36 peptide cleavage by plasmin (KM, Kcat). The conditions noted are these: P36 8, 16, 32, 64 nM; 1.25 nM plasmin; 30 min, 37°C; HPLC; double-reciprocal plot. The format is biochemical. As to the method:
Michaelis constant (KM) and first-order rate constant of substrate peptide turnover (Kcat) were obtained by digestion of P36 peptide (8, 16, 32, 64 nM), for 30 min at 37°C in the presence of 1.25 nM plasmin. Cleavage of the peptide was monitored by HPLC. From these measurements, Kcat and KM were calculated using double-reciprocal plot of 1/[S] versus 1/v.

The test system of the next data set is MT1-MMP. The experiment in a line: P36 peptide cleavage by MT1-MMP. In kind it is biochemical. The conditions noted are these: preliminary experiments, data not shown.
In a further data set the test system is SKMEL28 cells. The experiment in a line: Scratch wound assay. The conditions noted are these: F4 200 μg/mL, p < 0.05 vs control, five experiments. In kind it is cell-based, human. As to the method:
as §3
SKMEL28 cells (5 × 10^4 per well) were seeded in 24-well plates and cultivated to confluence in DMEM supplemented with 5% FBS. The cell layer was then wounded with a sterile 100 to 1000 μL pipet tip and re-incubated in fresh culture medium in the absence or presence of F4 peptide. After 24 h, 48 h or 72 h, cells were photographed and the size of the remaining wound measured.

Another data set has as its system B16F1 cells. The data set is described as follows: In vivo murine melanoma model, tumor growth. Set-up: species or system mouse (murine B16F1 melanoma in C57Bl6 mice). Particulars: day 15; B16F1 cells pre-incubated 30 min with F4, s.c.; re-injected i.p. day 7 and 14; ten mice; p < 0.05 vs controls. As to the method: as §3
C57Bl6 mice (average body weight: 16–18 g) were purchased from Harlan France (Gannat, France). The in vivo experiments were conducted according to the ethical guidelines of the Centre National de la Recherche Scientifique (CNRS). In vivo melanoma model was previously described (Ramont et al., 2007). Briefly, 2.5 × 10^5 B16F1 cells, pre-incubated (30 min) with either control medium or F4 peptide, were subcutaneously injected into the left side of 10 syngenic C57BL6 mice. Treatments were re-injected intraperitoneally at day 7 and 14. Tumor size was measured regularly.

Data set [5] has as its system plasmin. The experiment in a line: Plasmin activity measurement in SKMEL28 culture, chromogenic substrate S-2251. The format is cell-based, human. Particulars: SKMEL28 with plasminogen; S-2251 hydrolysis at 405 nm. As to the method: After washing with DPBS, cells were incubated in DMEM with/without 20 μL plasminogen (40 μg/mL) and/or 20 μL plasmin (10 μg/mL) and/or 20 μL plasmin chromogenic substrate (250 μg/mL). Hydrolysis of the S-2251 chromogenic substrate (Chromogenix, distributed by Hyphen Biomed, Neuville sur Oise, France) was measured at 405 nm at different time.

Data set [6] relates to experimental cancer models. Particulars: cited from earlier work. The text has this:
The basement membrane is a complex structure mainly composed of laminins, nidogens, heparan sulfate proteoglycans (perlecan and/or agrin), and type IV collagen. More recently, associations between basement membrane and minor collagens such as type XVIII, XV or type XIX were reported and named basement membrane zone. These collagenous components associated with the basement membrane represent a dynamic interface between this structure and the stroma. Basement membrane has long been described as a simple architectural cell support. […] For instance, endostatin, the NC1 domain of type XVIII collagen, is released by many proteases such as MMP-3, 7, 9, 12, 13, 20 [14, 35, 36], or cathepsins B, L, S, V [37, 38, 39]. […] Tumstatin, the NC1 domain of type IV collagen is generated in vivo by MMP-9 [7]. It exerts anti-tumor and anti ...

[7] abbreviates: E:S 1:50, 37°C, 0, 5, 30, 60 min, HPLC method 1.
Where [8] appears, read: SKMEL28, plasminogen + aprotinin (10^−5 M).
The mark [9] stands for this setting: SKMEL28, plasminogen added (20 μL, 40 μg/mL).

T1 sequence (P00747 97-580 partner limits assumed, species assumed): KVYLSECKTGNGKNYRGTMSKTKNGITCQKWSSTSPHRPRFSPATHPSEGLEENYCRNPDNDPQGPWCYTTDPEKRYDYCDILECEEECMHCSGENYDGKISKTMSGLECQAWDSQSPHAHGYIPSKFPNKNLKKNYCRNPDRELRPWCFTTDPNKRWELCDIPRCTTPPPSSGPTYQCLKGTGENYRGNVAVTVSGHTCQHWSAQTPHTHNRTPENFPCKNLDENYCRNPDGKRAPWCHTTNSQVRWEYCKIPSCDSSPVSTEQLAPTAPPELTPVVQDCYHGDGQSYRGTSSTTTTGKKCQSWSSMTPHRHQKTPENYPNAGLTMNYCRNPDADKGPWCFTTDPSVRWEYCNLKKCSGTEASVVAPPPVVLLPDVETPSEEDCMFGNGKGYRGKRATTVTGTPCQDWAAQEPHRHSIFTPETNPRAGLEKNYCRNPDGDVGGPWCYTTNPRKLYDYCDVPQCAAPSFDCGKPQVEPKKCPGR
T1 sequence (P00747 581-810 limits assumed, species assumed): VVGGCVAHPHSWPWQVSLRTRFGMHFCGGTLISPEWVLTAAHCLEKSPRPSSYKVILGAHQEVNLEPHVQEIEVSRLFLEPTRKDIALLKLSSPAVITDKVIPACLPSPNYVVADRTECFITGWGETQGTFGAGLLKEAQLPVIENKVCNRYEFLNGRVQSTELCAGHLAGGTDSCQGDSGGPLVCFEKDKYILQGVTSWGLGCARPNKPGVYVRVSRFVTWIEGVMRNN

Regarding “(SPGAPGPQGPPGPSGRC) and the totality of the C-terminal NC1(XIX) domain (NPEDCLYPVSHAHQRTGGN) [P36, synthetic peptide composed of the last 36 residues of the human α1(XIX) chain]”, in the data set with MMP-1, the “Cleavage of P36 by MMP-1” value is recorded as “Neither MMP-1, MMP-2, MMP-9 nor MT1-MMP were capable to cleave the P36 peptide”. Also, the “Cleavage of P36 by MMP-2” value with MMP-2 is given as “Neither MMP-1, MMP-2, MMP-9 nor MT1-MMP were capable to cleave the P36 peptide”. In addition, at plasmin [1] (setting [7]), the “Dependence of digestion on time” value is recorded as “time-dependent” and the “Time at which P36 peptide was cleaved by plasmin” value is reported as at most 5 min. Moreover, the Plasmin cleavage site result on plasmin [1] (E:S 1:50, 16 h, 37°C, Tris-HCl pH 7.5, MALDI-ToF MS) is recorded as “Arg1138-Thr1139; also recorded: Arg1122-Cys1123”. The “Dependence of digestion on plasmin dose” value at plasmin [1] (plasmin 1:50 to 1:400, overnight/16 h, 37°C, HPLC method 1) is “dose-dependent”. Moreover, the “Cleavage of P36 by MMP-9” value in the data set on MMP-9 is “Neither MMP-1, MMP-2, MMP-9 nor MT1-MMP were capable to cleave the P36 peptide”. Besides, in data set [2], the “Time for spontaneous intra-chain disulfide bond formation (C^1123-C^1128)” value was “less than 1 h” and the “Intra-chain disulfide bond formation Cys^1123-Cys^1128” value is “formed an intra-chain disulfide-bond”. Also, the “Release of fragments / cleavage of P36 in cell culture” value in the data set with plasmin [3] (SKMEL28, no added plasminogen) is “no cleavage of P36 peptide occurred”. The “Cleavage of P36 in cell culture in presence of aprotinin” value in the data set on plasmin [3] (setting [8]) is reported as “no cleavage of P36 occurred”. Besides, the “Release of fragments / cleavage of P36 in cell culture” value in the data set on plasmin [3] (setting [9]) is listed as “P36 peptide disappeared”. At plasmin [4], this substance showed a Kcat of 0.077 s⁻¹. In addition, the “Cleavage of P36 by MT1-MMP” value in the data set with MT1-MMP is reported as “Neither MMP-1, MMP-2, MMP-9 nor MT1-MMP were capable to cleave the P36 peptide”.
For the substance CNPEDCLYPVSHAHQR [F4], the “Time for spontaneous intra-chain disulfide bond formation (C^1123-C^1128)” value in [2] is “less than 1 h”. Further, in data set [2], the “Intra-chain disulfide bond formation Cys^1123-Cys^1128” value is “formed an intra-chain disulfide-bond”. Also, the “Release of fragments / cleavage of P36 in cell culture” value is recorded as “no release” with plasmin [3] (SKMEL28, no added plasminogen) and “released” in the data set with plasmin [3] (setting [9]). Moreover, the “Change in wound closure” value with SKMEL28 cells (24 h) is on record as −53%; in the data set with SKMEL28 cells (48 h), −39%; in the data set on SKMEL28 cells (72 h), −36%. In addition, in the data set with B16F1 cells, the “Change in tumor growth (tumor volume)” value was −30%.
Turning to “SPGAPGPQGPPGPSGR [F2, … Col1 domain of P36 peptide]”, the “Release of fragments / cleavage of P36 in cell culture” value is recorded as “no release” in the data set on plasmin [3] (SKMEL28, no added plasminogen) and “released” in the data set with plasmin [3] (setting [9]).
With aprotinin [reference compound], the “Effect on P36 peptide plasmin digestion” value on plasmin [1] (aprotinin 10^−5 M, 37°C) is reported as “completely abolished”; on plasmin [1] (aprotinin 10^−6 M, 37°C), “completely abolished”; on plasmin [1] (aprotinin 10^−7 M, 37°C), “not sufficient to prevent it”. Moreover, in the data set with plasmin [5], the “Inhibition of plasmin activity” value is “completely inhibited plasmin activity”. For the same substance, the “Effect of aprotinin on release of F2, F3 and F4” value with plasmin [3] (setting [8]) is “abolished this release”.
Regarding endostatin, the Anti-tumor properties result in data set [6] (number of experimental cancer models, ref [7], [43]) is given as “exerts significant anti-tumor properties”. Also, the “Metastatic potential of cells” value in data set [6] (ref [38]) is “reduces metastatic potential of cells”.
